Laboratory results taken from publication PMC2566858 (Nucleic Acids Research, 2008).

Tests used:
[1] = molecular target: rGyr_fl (Thermotoga maritima, UniProt O51934, K106Q/Y851F); test: biochemical
[2] = molecular target: rGyr_hel (Thermotoga maritima, UniProt O51934, K106Q); test: biochemical
[3] = molecular target: T1, rGyr_hel (Thermotoga maritima, UniProt O51934); test: fluorescence equilibrium titration; assay type: binding
T1 sequence (O51934 59-541): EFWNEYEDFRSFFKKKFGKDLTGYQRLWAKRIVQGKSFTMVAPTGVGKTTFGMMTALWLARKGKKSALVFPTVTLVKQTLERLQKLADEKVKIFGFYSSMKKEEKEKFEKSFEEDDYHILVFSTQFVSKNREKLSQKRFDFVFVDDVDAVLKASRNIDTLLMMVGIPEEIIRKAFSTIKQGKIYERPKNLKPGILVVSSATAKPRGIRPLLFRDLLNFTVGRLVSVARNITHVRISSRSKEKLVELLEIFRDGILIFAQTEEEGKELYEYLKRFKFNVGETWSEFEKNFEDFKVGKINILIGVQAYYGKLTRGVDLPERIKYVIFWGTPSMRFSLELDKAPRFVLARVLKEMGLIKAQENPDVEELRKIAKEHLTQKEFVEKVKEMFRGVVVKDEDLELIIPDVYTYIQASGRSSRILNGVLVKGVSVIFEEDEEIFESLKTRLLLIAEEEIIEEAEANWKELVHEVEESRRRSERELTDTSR

rGyr_hel (Thermotoga maritima, UniProt O51934, K106Q), sequence (O51934 59-541 K106Q): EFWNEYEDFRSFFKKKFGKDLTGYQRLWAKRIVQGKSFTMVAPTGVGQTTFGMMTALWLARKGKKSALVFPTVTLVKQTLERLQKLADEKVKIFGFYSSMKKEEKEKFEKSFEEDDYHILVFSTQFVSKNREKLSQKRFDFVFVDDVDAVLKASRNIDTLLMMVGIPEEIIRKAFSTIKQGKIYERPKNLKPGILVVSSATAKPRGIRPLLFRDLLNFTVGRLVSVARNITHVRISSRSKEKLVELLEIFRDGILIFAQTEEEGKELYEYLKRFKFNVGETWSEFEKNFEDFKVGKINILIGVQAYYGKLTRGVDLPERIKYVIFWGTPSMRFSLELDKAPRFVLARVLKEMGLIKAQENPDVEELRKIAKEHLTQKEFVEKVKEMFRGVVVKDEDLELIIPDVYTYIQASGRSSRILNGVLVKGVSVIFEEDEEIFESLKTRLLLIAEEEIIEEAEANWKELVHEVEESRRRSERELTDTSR
rGyr_fl, sequence (O51934 whole entry K106Q/Y851F): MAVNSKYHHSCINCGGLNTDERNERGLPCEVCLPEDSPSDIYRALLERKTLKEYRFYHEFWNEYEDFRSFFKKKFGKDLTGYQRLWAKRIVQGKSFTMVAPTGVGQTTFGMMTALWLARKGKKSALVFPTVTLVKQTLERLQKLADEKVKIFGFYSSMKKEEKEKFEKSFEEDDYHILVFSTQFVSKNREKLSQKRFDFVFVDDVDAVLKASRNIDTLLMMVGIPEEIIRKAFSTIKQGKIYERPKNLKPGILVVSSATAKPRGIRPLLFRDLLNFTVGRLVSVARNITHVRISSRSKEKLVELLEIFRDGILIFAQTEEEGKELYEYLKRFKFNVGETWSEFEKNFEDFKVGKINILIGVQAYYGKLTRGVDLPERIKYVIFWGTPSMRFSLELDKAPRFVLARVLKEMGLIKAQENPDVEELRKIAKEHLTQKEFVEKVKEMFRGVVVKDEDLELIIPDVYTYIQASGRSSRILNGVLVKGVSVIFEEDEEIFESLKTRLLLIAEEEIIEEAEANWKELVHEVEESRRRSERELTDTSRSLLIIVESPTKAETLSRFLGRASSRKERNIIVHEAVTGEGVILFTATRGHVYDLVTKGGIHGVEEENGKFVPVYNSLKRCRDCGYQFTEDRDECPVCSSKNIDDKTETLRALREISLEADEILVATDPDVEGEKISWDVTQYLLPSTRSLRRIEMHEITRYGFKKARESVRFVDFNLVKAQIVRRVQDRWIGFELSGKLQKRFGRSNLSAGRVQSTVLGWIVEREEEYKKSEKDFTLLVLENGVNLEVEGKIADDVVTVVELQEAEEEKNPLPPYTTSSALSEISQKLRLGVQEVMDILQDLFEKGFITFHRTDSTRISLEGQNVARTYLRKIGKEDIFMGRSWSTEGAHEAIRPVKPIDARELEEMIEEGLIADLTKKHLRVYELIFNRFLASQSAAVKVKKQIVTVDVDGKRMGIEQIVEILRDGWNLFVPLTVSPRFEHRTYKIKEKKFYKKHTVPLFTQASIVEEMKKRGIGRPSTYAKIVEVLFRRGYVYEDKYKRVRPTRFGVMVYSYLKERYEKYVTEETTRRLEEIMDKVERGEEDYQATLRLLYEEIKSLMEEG

Kd [1] [µM] | Kd [2] [µM] | Kd [3] [µM] | Compound
36 ± 5 | 150 ± 85 | – | Nc1ncnc2c1ncn2[C@@H]1O[C@H](COP(=O)(O)OP(=O)(O)O)[C@@H](O)[C@H]1O [ADP]
– | – | 1600 ± 231 | Nc1ncnc2c1ncn2[C@@H]1O[C@H](COP(=O)(O)O)[C@@H](O)[C@H]1O [AMP]
98 ± 12 | 570 ± 300 | – | Nc1ncnc2c1ncn2[C@@H]1O[C@H](COP(=O)(O)OP(=O)(O)OP(=O)(O)O)[C@@H](O)[C@H]1O [ATP]
